Where two headings read alike, the source gives them in different places.
Test system: HepaRG spheroids
Assay: HepaRG 3D spheroids, cell and mitochondrial health markers, 14 days
Settings: for High Cell Loss (Cellular ATP) / High Cell Loss (DNA structure) / High Cell Loss (Glutathione content) / High Cell Loss (Mitochondrial mass) / High Cell Loss (Mitochondrial membrane potential) / High Cell Loss (Oxidative stress) / High Cell Loss (Spheroid count) / High Cell Loss (Spheroid size): timepoint 336; for AC50: Homo sapiens, HepaRG
[1] = HepaRG spheroid, TIMEPOINT 336, at the concentration (uM) given
[2] = HepaRG spheroid, TIMEPOINT 336, plotted value at the concentration given

Description: Hepatic spheroids were formed by seeding HepaRG™ cells into round-bottom ultra-low adhesion 96-well spheroid plates (Corning®) in 3D liver media with 0.5% DMSO, 100 U/mL penicillin, and 100 mg/L streptomycin. Cells were incubated at 37°C and 5% CO2 until spheroid formation and then compound-treated. The test compound was diluted in the vehicle, and serial dilutions were made in a 0.5% vehicle in HepaRG™ induction media. […] L-buthionine sulfoximine was used as positive control for GSH content, whereas rotenone was simultaneously used as a positive control for mitochondrial dysfunction and ATP content. At the end of the incubation period, the cells were loaded with the relevant dye for each cell health marker: DNA structure–Hoescht, GSH content–mBCL, ROS formation–DHE, mitochondrial dysfunction–MitoTracker, and cellular ATP content–CellTiter-Glo®, Promega. The plate was then scanned using an automated confocal fluorescent cellular imager, ArrayScan® XTI (Thermo Scientific Cellomics) at 37°C and 5% CO2. Further, the cellular ATP content was measured using CellTiter-Glo® (Promega, USA).

CCCCS(=N)(=O)CC[C@H](N)C(=O)O (stereo partly drawn) [L-buthionine-sulfoximine]
High Cell Loss (Cellular ATP) (CONC 0.4 uM, HepaRG spheroid): N | High Cell Loss (DNA structure) (CONC 0.4 uM, HepaRG spheroid): N | High Cell Loss (Glutathione content) (CONC 0.4 uM, HepaRG spheroid): N | High Cell Loss (Mitochondrial mass) (CONC 0.4 uM, HepaRG spheroid): N | High Cell Loss (Mitochondrial membrane potential) (CONC 0.4 uM, HepaRG spheroid): N | High Cell Loss (Oxidative stress) (CONC 0.4 uM, HepaRG spheroid): N | High Cell Loss (Spheroid count) (CONC 0.4 uM, HepaRG spheroid): N | High Cell Loss (Spheroid size) (CONC 0.4 uM, HepaRG spheroid): N | Cellular ATP Mean Plotted Value (CONC 0.4 uM, TIMEPOINT 336): 1.06 | DNA structure Mean Plotted Value (CONC 0.4 uM, TIMEPOINT 336): 1 | Glutathione content Mean Plotted Value (CONC 0.4 uM, TIMEPOINT 336): 0.883 | Mitochondrial mass Mean Plotted Value (CONC 0.4 uM, TIMEPOINT 336): 1.03 | Mitochondrial membrane potential Mean Plotted Value (CONC 0.4 uM, TIMEPOINT 336): 0.945 | Oxidative stress Mean Plotted Value (CONC 0.4 uM, TIMEPOINT 336): 1.02 | Spheroid count Mean Plotted Value (CONC 0.4 uM, TIMEPOINT 336): 1 | Spheroid size Mean Plotted Value (CONC 0.4 uM, TIMEPOINT 336): 0.995 | High Cell Loss (Cellular ATP) (CONC 1 uM, HepaRG spheroid): N | High Cell Loss (DNA structure) (CONC 1 uM, HepaRG spheroid): N | High Cell Loss (Glutathione content) (CONC 1 uM, HepaRG spheroid): N | High Cell Loss (Mitochondrial mass) (CONC 1 uM, HepaRG spheroid): N | High Cell Loss (Mitochondrial membrane potential) (CONC 1 uM, HepaRG spheroid): N | High Cell Loss (Oxidative stress) (CONC 1 uM, HepaRG spheroid): N | High Cell Loss (Spheroid count) (CONC 1 uM, HepaRG spheroid): N | High Cell Loss (Spheroid size) (CONC 1 uM, HepaRG spheroid): N | Cellular ATP Mean Plotted Value (CONC 1 uM, TIMEPOINT 336): 1.05 | DNA structure Mean Plotted Value (CONC 1 uM, TIMEPOINT 336): 1.1 | Glutathione content Mean Plotted Value (CONC 1 uM, TIMEPOINT 336): 0.886 | Mitochondrial mass Mean Plotted Value (CONC 1 uM, TIMEPOINT 336): 1.14 | Mitochondrial membrane potential Mean Plotted Value (CONC 1 uM, TIMEPOINT 336): 1 | Oxidative stress Mean Plotted Value (CONC 1 uM, TIMEPOINT 336): 0.984 | Spheroid count Mean Plotted Value (CONC 1 uM, TIMEPOINT 336): 1 | Spheroid size Mean Plotted Value (CONC 1 uM, TIMEPOINT 336): 1.06 | High Cell Loss (Cellular ATP) (CONC 4 uM, HepaRG spheroid): N | High Cell Loss (DNA structure) (CONC 4 uM, HepaRG spheroid): N | High Cell Loss (Glutathione content) (CONC 4 uM, HepaRG spheroid): N | High Cell Loss (Mitochondrial mass) (CONC 4 uM, HepaRG spheroid): N | High Cell Loss (Mitochondrial membrane potential) (CONC 4 uM, HepaRG spheroid): N | High Cell Loss (Oxidative stress) (CONC 4 uM, HepaRG spheroid): N | High Cell Loss (Spheroid count) (CONC 4 uM, HepaRG spheroid): N | High Cell Loss (Spheroid size) (CONC 4 uM, HepaRG spheroid): N | Cellular ATP Mean Plotted Value (CONC 4 uM, TIMEPOINT 336): 0.856 | DNA structure Mean Plotted Value (CONC 4 uM, TIMEPOINT 336): 0.816 | Glutathione content Mean Plotted Value (CONC 4 uM, TIMEPOINT 336): 0.715 | Mitochondrial mass Mean Plotted Value (CONC 4 uM, TIMEPOINT 336): 1.03 | Mitochondrial membrane potential Mean Plotted Value (CONC 4 uM, TIMEPOINT 336): 0.861 | Oxidative stress Mean Plotted Value (CONC 4 uM, TIMEPOINT 336): 1 | Spheroid count Mean Plotted Value (CONC 4 uM, TIMEPOINT 336): 1 | Spheroid size Mean Plotted Value (CONC 4 uM, TIMEPOINT 336): 0.997 | High Cell Loss (Cellular ATP) (CONC 10 uM, HepaRG spheroid): N | High Cell Loss (DNA structure) (CONC 10 uM, HepaRG spheroid): N | High Cell Loss (Glutathione content) (CONC 10 uM, HepaRG spheroid): N | High Cell Loss (Mitochondrial mass) (CONC 10 uM, HepaRG spheroid): N | High Cell Loss (Mitochondrial membrane potential) (CONC 10 uM, HepaRG spheroid): N | High Cell Loss (Oxidative stress) (CONC 10 uM, HepaRG spheroid): N | High Cell Loss (Spheroid count) (CONC 10 uM, HepaRG spheroid): N | High Cell Loss (Spheroid size) (CONC 10 uM, HepaRG spheroid): N | Cellular ATP Mean Plotted Value (CONC 10 uM, TIMEPOINT 336): 0.697 | DNA structure Mean Plotted Value (CONC 10 uM, TIMEPOINT 336): 1.13 | Glutathione content Mean Plotted Value (CONC 10 uM, TIMEPOINT 336): 0.689 | Mitochondrial mass Mean Plotted Value (CONC 10 uM, TIMEPOINT 336): 0.979 | Mitochondrial membrane potential Mean Plotted Value (CONC 10 uM, TIMEPOINT 336): 0.943 | Oxidative stress Mean Plotted Value (CONC 10 uM, TIMEPOINT 336): 1.04 | Spheroid count Mean Plotted Value (CONC 10 uM, TIMEPOINT 336): 1 | Spheroid size Mean Plotted Value (CONC 10 uM, TIMEPOINT 336): 0.951 | High Cell Loss (Cellular ATP) (CONC 40 uM, HepaRG spheroid): N | High Cell Loss (DNA structure) (CONC 40 uM, HepaRG spheroid): N | High Cell Loss (Glutathione content) (CONC 40 uM, HepaRG spheroid): N | High Cell Loss (Mitochondrial mass) (CONC 40 uM, HepaRG spheroid): N | High Cell Loss (Mitochondrial membrane potential) (CONC 40 uM, HepaRG spheroid): N | High Cell Loss (Oxidative stress) (CONC 40 uM, HepaRG spheroid): N | High Cell Loss (Spheroid count) (CONC 40 uM, HepaRG spheroid): N | High Cell Loss (Spheroid size) (CONC 40 uM, HepaRG spheroid): N | Cellular ATP Mean Plotted Value (CONC 40 uM, TIMEPOINT 336): 0.216 | DNA structure Mean Plotted Value (CONC 40 uM, TIMEPOINT 336): 1.18 | Glutathione content Mean Plotted Value (CONC 40 uM, TIMEPOINT 336): 0.15 | Mitochondrial mass Mean Plotted Value (CONC 40 uM, TIMEPOINT 336): 1.05 | Mitochondrial membrane potential Mean Plotted Value (CONC 40 uM, TIMEPOINT 336): 0.972 | Oxidative stress Mean Plotted Value (CONC 40 uM, TIMEPOINT 336): 1.22 | Spheroid count Mean Plotted Value (CONC 40 uM, TIMEPOINT 336): 1 | Spheroid size Mean Plotted Value (CONC 40 uM, TIMEPOINT 336): 0.955 | High Cell Loss (Cellular ATP) (CONC 100 uM, HepaRG spheroid): N | High Cell Loss (DNA structure) (CONC 100 uM, HepaRG spheroid): N | High Cell Loss (Glutathione content) (CONC 100 uM, HepaRG spheroid): N | High Cell Loss (Mitochondrial mass) (CONC 100 uM, HepaRG spheroid): N | High Cell Loss (Mitochondrial membrane potential) (CONC 100 uM, HepaRG spheroid): N | High Cell Loss (Oxidative stress) (CONC 100 uM, HepaRG spheroid): N | High Cell Loss (Spheroid count) (CONC 100 uM, HepaRG spheroid): N | High Cell Loss (Spheroid size) (CONC 100 uM, HepaRG spheroid): N | Cellular ATP Mean Plotted Value (CONC 100 uM, TIMEPOINT 336): 0.019 | DNA structure Mean Plotted Value (CONC 100 uM, TIMEPOINT 336): 1.13 | Glutathione content Mean Plotted Value (CONC 100 uM, TIMEPOINT 336): 0.119 | Mitochondrial mass Mean Plotted Value (CONC 100 uM, TIMEPOINT 336): 1.03 | Mitochondrial membrane potential Mean Plotted Value (CONC 100 uM, TIMEPOINT 336): 0.807 | Oxidative stress Mean Plotted Value (CONC 100 uM, TIMEPOINT 336): 1.13 | Spheroid count Mean Plotted Value (CONC 100 uM, TIMEPOINT 336): 1 | Spheroid size Mean Plotted Value (CONC 100 uM, TIMEPOINT 336): 0.975 | High Cell Loss (Cellular ATP) (CONC 400 uM, HepaRG spheroid): N | High Cell Loss (DNA structure) (CONC 400 uM, HepaRG spheroid): N | High Cell Loss (Glutathione content) (CONC 400 uM, HepaRG spheroid): N | High Cell Loss (Mitochondrial mass) (CONC 400 uM, HepaRG spheroid): N | High Cell Loss (Mitochondrial membrane potential) (CONC 400 uM, HepaRG spheroid): N | High Cell Loss (Oxidative stress) (CONC 400 uM, HepaRG spheroid): N | High Cell Loss (Spheroid count) (CONC 400 uM, HepaRG spheroid): N | High Cell Loss (Spheroid size) (CONC 400 uM, HepaRG spheroid): N | Cellular ATP Mean Plotted Value (CONC 400 uM, TIMEPOINT 336): 0.00038 | DNA structure Mean Plotted Value (CONC 400 uM, TIMEPOINT 336): 0.279 | Glutathione content Mean Plotted Value (CONC 400 uM, TIMEPOINT 336): 0.0382 | Mitochondrial mass Mean Plotted Value (CONC 400 uM, TIMEPOINT 336): 0.963 | Mitochondrial membrane potential Mean Plotted Value (CONC 400 uM, TIMEPOINT 336): 0.452 | Oxidative stress Mean Plotted Value (CONC 400 uM, TIMEPOINT 336): 0.937 | Spheroid count Mean Plotted Value (CONC 400 uM, TIMEPOINT 336): 1 | Spheroid size Mean Plotted Value (CONC 400 uM, TIMEPOINT 336): 0.965 | High Cell Loss (Cellular ATP) (CONC 1000 uM, HepaRG spheroid): N | High Cell Loss (DNA structure) (CONC 1000 uM, HepaRG spheroid): N | High Cell Loss (Glutathione content) (CONC 1000 uM, HepaRG spheroid): N | High Cell Loss (Mitochondrial mass) (CONC 1000 uM, HepaRG spheroid): N | High Cell Loss (Mitochondrial membrane potential) (CONC 1000 uM, HepaRG spheroid): N | High Cell Loss (Oxidative stress) (CONC 1000 uM, HepaRG spheroid): N | High Cell Loss (Spheroid count) (CONC 1000 uM, HepaRG spheroid): N | High Cell Loss (Spheroid size) (CONC 1000 uM, HepaRG spheroid): N | Cellular ATP Mean Plotted Value (CONC 1000 uM, TIMEPOINT 336): 0.000301 | DNA structure Mean Plotted Value (CONC 1000 uM, TIMEPOINT 336): 0.123 | Glutathione content Mean Plotted Value (CONC 1000 uM, TIMEPOINT 336): 0.0358 | Mitochondrial mass Mean Plotted Value (CONC 1000 uM, TIMEPOINT 336): 0.999 | Mitochondrial membrane potential Mean Plotted Value (CONC 1000 uM, TIMEPOINT 336): 0.412 | Oxidative stress Mean Plotted Value (CONC 1000 uM, TIMEPOINT 336): 0.683 | Spheroid count Mean Plotted Value (CONC 1000 uM, TIMEPOINT 336): 1 | Spheroid size Mean Plotted Value (CONC 1000 uM, TIMEPOINT 336): 0.983 | Cellular ATP MEC (HepaRG spheroid, TIMEPOINT 336): 6.84 µM | DNA structure MEC (HepaRG spheroid, TIMEPOINT 336): 222 µM | Glutathione content MEC (HepaRG spheroid, TIMEPOINT 336): 2.95 µM | Mitochondrial membrane potential MEC (HepaRG spheroid, TIMEPOINT 336): 177 µM | Oxidative stress MEC (HepaRG spheroid, TIMEPOINT 336): 658 (NS) uM | Cellular ATP MR (% @ concentration) [1]: 100% | DNA structure MR (% @ concentration) [1]: 89% | Glutathione content MR (% @ concentration) [1]: 96% | Mitochondrial membrane potential MR (% @ concentration) [1]: 58% | Oxidative stress MR (% @ concentration) [1]: 35% | Cellular ATP MR [2]: 0.000301 | DNA structure MR [2]: 0.123 | Glutathione content MR [2]: 0.0358 | Mitochondrial membrane potential MR [2]: 0.412 | Oxidative stress MR [2]: 0.683 | AC50 (read-out: Cellular ATP AC50): 15.5 µM | AC50 (read-out: DNA structure AC50): 294 µM | AC50 (read-out: Glutathione content AC50): 16.2 µM | AC50 (read-out: Mitochondrial mass AC50): > 1000 µM | AC50 (read-out: Mitochondrial membrane potential AC50): 511 µM | AC50 (read-out: Oxidative stress AC50): > 1000 µM | AC50 (read-out: Spheroid count AC50): > 1000 µM | AC50 (read-out: Spheroid size AC50): > 1000 µM
